We go through three compounds from patent publication US11819489B2 (priority 2017, dated 2023).

By IC50 is commonly meant the concentration that gives 50% inhibition.

Where two headings read alike, the source gives them in different places.

Series [1] concerns K562 cells. Put plainly: Cellular As uptake, K562 cells. Conditions: K562, 24-h treatment, 1.5 μM As. The format is cell-based, human. On the procedure: (§1) FIG. 24 is a graphical summary of the cellular As concentrations associated with the specified cell lines following 24-h treatment (1.5 μM As). The results are represented as the mean and standard deviation of triplicate samples.
(§2) FIG. 24 summarises the cellular As concentrations associated with the different cell types following 24-h treatment with the various As compounds (1.5 μM As). The leukemia cell lines, K562, HL-60, Kasumi-1 and KARPAS 45, are depicted in red (lighter of the filled in blocks), and the non-leukemia cell types are depicted in black (darkest shading), with the cancerous adherent cells, HepG2, in the diagonal stripes, and the normal cells, hPBMC, in solid black.

In series [2] the test system is HL-60 cells. Put plainly: Cellular As uptake, HL-60 cells. The series is classed as cell-based, human. To be noted: HL-60, 24-h treatment, 1.5 μM As. As for the experimental part: as §1, §2
Series [3] has as its system Kasumi-1 cells. Put plainly: Cellular As uptake, Kasumi-1 cells. The series is classed as cell-based, human. Conditions: Kasumi-1, 24-h treatment, 1.5 μM As. As for the experimental part:
as §1, §2

Series [4] concerns KARPAS 45 cells. Put plainly: Cellular As uptake, KARPAS 45 cells. Conditions: 1.5 μM As; for cellular As concentration: KARPAS 45, 24-h treatment. The format is cell-based, human. As for the experimental part:
as §1, §2

In series [5] the test system is HepG2 cells. The series is classed as cell-based, human.
Series [6] concerns hPBMC. Put plainly: Cellular As uptake, hPBMC. The series is classed as cell-based, human. Conditions: 24-h treatment, 1.5 μM As. As for the experimental part: as §1, §2
The test system of series [7] is K562 cells.
The test system of series [8] is HL-60 cells.
Series [9] deals with KARPAS 45 cells.
For series [10], the system named is HepG2 cells.
Series [11] has as its system human peripheral blood mononuclear cells (hPBMC).
In series [12] the test system is K562 cells. Put plainly: cells. To be noted: Homo sapiens, K562, 24 h.
In series [13] the test system is HL-60 cells. Briefly: cells. Conditions: Homo sapiens, HL-60, 24 h.
For series [14], the system named is KARPAS 45 cells. Briefly: cells. Conditions: Homo sapiens, 24 h.
Series [15] has as its system HepG2 cells. Put plainly: cells. Conditions: Homo sapiens, HepG2, 24 h.
Series [16] deals with Chinese hamster (CH) solid tumour cells. Put plainly: cells. Conditions: Cricetulus griseus, 24 h.
Series [17] concerns human peripheral blood mononuclear cells (hPBMC). Put plainly: cells. Conditions: PBMC, 24 h.
Series [18] in a line: in vitro. Conditions: human.
The nature of series [19]: in vitro. Conditions: Chinese hamster.
For series [20], the system named is Kasumi-1 cells. Briefly: cells. To be noted: Homo sapiens, Kasumi 1, 24 h.

Consider `CC(=O)N[C@H]1CS[As](c2ccccc2)SC[C@@H](C(=O)O)NC(=O)[C@H](CCCNC(=N)N)NC(=O)[C@H](CC(C)C)NC(=O)[C@H](Cc2ccc(O)cc2)NC(=O)[C@H](CCCNC(=N)N)NC(=O)[C@H](Cc2c[nH]cn2)NC(=O)[C@H](CCCNC(=N)N)NC(=O)[C@H](C)NC1=O` (some centres unmarked) [PhAs(sLHP)], for which the “cellular As concentration” value in series [1], in series [2], in [3], in [4], in [5] and in [6] was “no detectable As uptake” in each case. Moreover, the IC50 in [7] amounted to 790 ± 30 µM; in series [8] it was 205 ± 4 µM; in [10] it was 960 ± 10 µM; in series [11], 665 ± 8 µM. Moreover, the “times less toxic than PhAs(LHP)” value turned out to be 1600 times in series [7] and 32 times in [9].

`CC(=O)Nc1cc([As](=O)(O)O)ccc1O` [Acetarsol]: the IC50 in series [12], in [13], in series [14], in [15], in series [16] and in series [17] was more than 1000 µM throughout. The viability at 1000 µM in [12] (read-out: K562 cells still viable) worked out at 60.5%. Besides, the viability in series [18] and in series [19] was approximately 100% each time.

As to `O=[As]O` [Arsenite, Sodium meta-arsenite], the “cellular As concentration” value in series [1], in [2], in [3], in series [4], in series [5] and in series [6] was < 4×10^−14 g/cell throughout. For the same compound, the “cellular As concentration in KARPAS 45 cells, times more than in HepG2 cells” value in [4] (24-h treatment) amounted to 2.2 times. The IC50 in series [7] was determined as 18.6 ± 0.5 µM; in [9], 66 ± 3 µM; in [11] it was 40 ± 8 µM; in [12], 18.6 ± 0.49 µM; in [13], 20 ± 1 µM; in series [20], 61.2 ± 0.6 µM. In addition, the IC50 in series [14] worked out at 66.2 ± 2.6 µM; in series [15], 89 ± 1 µM; in [16], 26.1 ± 0.8 µM; in series [17] it was 40.1 ± 7.7 µM.
